Data set [1] relates to six bacteria (SA, HA-MRSA, CA-MRSA, EF, EC, PA). Nature of the data set: MIC against the panel of bacteria tested. Conditions: for antimicrobial activity: quinine- and nicotine-derived QACs, in words; for low micromolar activity: all bacteria except for P. aeruginosa. It counts as cell-based. How it is done:
(§1) As used herein, the term “minimum inhibitory concentration (MIC)” refers to the lowest concentration of an antimicrobial agent that will inhibit the visible growth of a microorganism after overnight incubation. MIC values against bacteria, for example, the Gram-positive Staphylococcus aureus and Enterococcus faecalis and the Gram-negative Escherichia coli and Pseudomonas aeruginosa were determined by standard methods. See also P. A. Wayne, Methods for Dilution Antimicrobial Tests for Bacteria that Grow Aerobically; Approved Standard, Ninth Edition, 2012, CLSI Document M07-A9, Vol. 32 No. 2, which is incorporated by reference herein in its entirety.
The complete set of MIC values against six bacteria [Staphylococcus aureus (SA), hospital-acquired methicillin-resistant SA (HA-MRSA), community-acquired methicillin-resistant SA (CA-MRSA), Enterococcus faecalis (EF), Escherichia coli (EC), and Pseudomonas aeruginosa (PA)] is presented in Table 3, wherein multiQACs are grouped with their monoQAC counterparts. The dye-based QACs with greatest inhibition of the complete range of Gram-positive and Gram-negative bacteria featured bis- or tris-quaternization, with the optimal alkyl total ranging from 17-24 carbons. For example, comparison of two biscationic series -LMG-n,1 and LMG-n,n—evaluates the effect of total alkyl chain length in retention of efficacy against the more challenging CA-MRSA and the Gram-negative strains EC and PA.
(§2) Compounds were serially diluted two-fold from a 10% DMSO/aqueous stock solution to yield twelve test concentrations. Overnight S. aureus, E. faecalis, E. coli, P. aeruginosa, CA-MRSA, and HA-MRSA cultures diluted to ca. 10^6 cfu/mL in Mueller-Hinton media and 100 μL were inoculated into each well of a U-bottom 96-well plate (BD Biosciences, BD351177) containing 100 μL of compound solution. Plates were incubated statically at 37° C. for 72 hours upon which time wells were evaluated visually for bacterial growth. The MIC was determined as the lowest concentration of compound resulting in no bacterial growth visible to the naked eye, based on the majority of three independent experiments. Positive and negative DMSO/aqueous solution and media controls were conducted for each trial. See Peng et al., 2011, Chem. Comm. 47:4896-4898.

The test system of data set [2] is Staphylococcus aureus (SA; MSSA SH1000). The data set is described as follows: Minimum inhibitory concentration (MIC). The format is cell-based. How it is done:
as §1, §2
as §2, with “trial.” for “trial. See Peng et al., 2011, Chem. Comm. 47:4896-4898.”

In data set [3] the test system is Enterococcus faecalis (OG1RF). The data set is described as follows: Minimum inhibitory concentration (MIC). The format is cell-based. Particulars: Table 1. How it is done:
as §1, §2
as §2, with “trial.” for “trial. See Peng et al., 2011, Chem. Comm. 47:4896-4898.”

For data set [4], the system named is Escherichia coli (MC4100). Nature of the data set: Minimum inhibitory concentration (MIC). The format is cell-based. Particulars: Table 1. How it is done: as §1, §2
as §2, with “trial.” for “trial. See Peng et al., 2011, Chem. Comm. 47:4896-4898.”

In data set [5] the test system is Pseudomonas aeruginosa (PAO1). Nature of the data set: Minimum inhibitory concentration (MIC). It counts as cell-based. Particulars: Table 1. How it is done:
as §1, §2
as §2, with “trial.” for “trial. See Peng et al., 2011, Chem. Comm. 47:4896-4898.”

In data set [6] the test system is Staphylococcus aureus (MSSA) biofilms. The data set is described as follows: Minimum biofilm eradication concentration (MBEC), regrowth assay. It counts as cell-based. Conditions: Table 1. How it is done:
(§3) A regrowth assay was used to establish the MBEC of a compound to evaluate the antibiofilm activity. See also H. Ceri, M. Olson, D. Morck, D. Storey, R. Read, A. Buret, B. Olson, Methods Enzymol. 2001, 337, 377, which is incorporated by reference herein in its entirety.
(§4) To each well of a flat-bottomed 96-well plate (Corning 3370), 8 μL of overnight bacterial culture was brought to a volume of 200 μL with fresh media (BHI for MSSA and MRSA). Plates were incubated statically for 24 hours at 37° C. to establish biofilms. After 24 hours, the wells were carefully emptied by inverting the plate and gently shaking. A pre-mixed solution of media and compound stock solution was added to each well and plates were incubated at 37° C. 16 hours after pre-established biofilms were treated with compound, the media from each well was removed, biofilms were washed three times with 200 μL PBS to remove planktonic cells, and biofilms were incubated overnight at 37° C. in 200 μL of fresh media to allow any viable cells to continue growing. The wells were then vigorously pipetted to resuspend the biofilm cells and the OD at 595 nm was measured using a plate reader (POLARstar Omega, BMG Labtech). Biofilms reaching a final OD of less than 0.1 were considered eradicated and the lowest concentration of antibiotic corresponded to the MBEC. Four replicates were completed for each concentration of compound as well as positive and negative controls.

Data set [7] deals with Enterococcus faecalis biofilms. Described as above. The format is cell-based. Conditions: Table 1.
From the text: as §3

Data set [8] has as its system MRSA biofilms (S. aureus USA300-0114). Described as above. It counts as cell-based, Staphylococcus aureus. Conditions: Table 2; pre-formed MRSA biofilms. How it is done:
as §3, §4

Data set [9] deals with red blood cells. The format is cell-based, sheep. How it is done: To date, synthesized compounds have been evaluated against planktonic bacteria (E. coli, S. aureus, P. aeruginosa, E. facaelis) and bacterial biofilms (E. facaelis, S. aureus, MRSA); new compounds are similarly assessed. All compounds are also evaluated via a hemolysis assay to assess their ability to lyse red blood cells (RBC) (Nagamune et al., 2000, Toxicology in Vitro 14:139-147). The assay is conducted following a known protocol to determine the concentration of compound that causes 20% of RBCs to be lysed. […] All compounds are benchmarked against three commercial antiseptics—benzalkonium chloride, DDAC, and CHX (FIG. 1).
Hemolysis assays were performed according to a known method (Peng et al., 2011, Chem. Comm. 47:4896-4898). Defibrinated sheep blood was purchased from Hemostat Labs (DSB030). Compounds representative of each class were serially diluted in sterile PBS from stock solutions and incubated with resuspended blood cells. The OD of the final suspensions were measured directly using plate reader. TritonX (1% by volume) served as a positive control (100% lysis marker) and sterile PBS served as a negative control (0% lysis marker).

Data set [10] deals with community-acquired methicillin-resistant Staphylococcus aureus CA-MRSA (USA300-0114). Nature of the data set: Minimum inhibitory concentration (MIC). The format is cell-based. Particulars: Table 2; qac-bearing MRSA strain USA300-0114. How it is done:
as §1, §2
as §2, with “trial.” for “trial. See Peng et al., 2011, Chem. Comm. 47:4896-4898.”

Like-named read-outs stand apart in the source and are kept apart here.

This note sets out measurements from patent US20180111893A1, “POLYCATIONIC AMPHIPHILES AND POLYMERS THEREOF AS ANTIMICROBIAL AGENTS AND METHODS USING SAME” (Temple University-Of The Commonwealth System of Higher …, priority 2015, published 2018).

In the case of `C[n+]1cccc([C@@H]2CCC[N+]2(C)C)c1` [N-1,1], the antimicrobial activity entry in data set [1] is reported as “essentially no antimicrobial activity”.

As for `CCCCCCCCCCCC[N+](C)(C)CCCN(C)CCC[N+](C)(C)CCCCCCCCCCCC` [12(3)0(3)12], the “MIC v SA” value in data set [2] (Table 1) was 1 µM. Further, the “MIC v EF” value in data set [3] was 2 µM. Besides, the “MIC v EC” value in data set [4] was 1 µM. In [5], the “MIC v PA” value was 4 µM. Moreover, the “MBEC v SA” value in data set [6] was determined as 37.5 µM. The “MBEC v EF” value in data set [7] came to 50 µM.

In the case of `CCCCCCCCCCCC[N+](C)(C)CCC[N+](C)(C)CCC[N+](C)(C)CCCCCCCCCCCC` [12(3)1(3)12], in data set [2] (Table 1), the “MIC v SA” value is 1 µM. Also, the “MIC v EF” value in [3] was 2 µM. Also, in data set [4], the “MIC v EC” value is 2 µM. Besides, the “MIC v PA” value in data set [5] was 8 µM. Also, the “MBEC v SA” value in data set [6] was 50 µM. For the same molecule, the “MBEC v EF” value in [7] was 50 µM.

`CCCCCCCCCCCCCCCCCC[n+]1cccc([C@@H]2CCC[N+]2(C)C)c1.[Br-].[I-]` [N-18,1] came in with a low micromolar activity in data set [1] of 4 µM.

Consider `CCCCCCCCCCCCCCCC[n+]1ccccc1` [Cetyl pyridinium chloride], for which the “MBEC v MRSA” value in data set [8] came out at 200 µM. This molecule also yielded a Lysis20 in [9] (concentration at which 20% of RBCs are lysed) of 8 µM. In addition, the “TI MRSA” value in data set [9] (therapeutic index, Lysis20/MIC v MRSA) is listed as 0.5. The “TI SA” value in data set [9] (therapeutic index, Lysis20/MIC v SA) came to 16.

Consider `C=CC1C[N+]2(CCCCCCCCCCCCCC)CCC1C[C@H]2[C@@H](O)c1ccnc2ccc(OC)cc12.[Br-]` (stereo partly shown) [Q-14,0], for which the antimicrobial activity result in [1] was “strongest activity”.

As to `CCCCCCCCCCCC[N+](C)(C)CCN(C)CCN(C)CC[N+](C)(C)CCCCCCCCCCCC` [N4-12,0,0,12], the “MIC v SA” value in data set [2] (Table 1) amounted to 1 µM. Besides, the “MIC v EF” value in data set [3] was 1 µM. Also, the “MIC v EC” value in data set [4] was 1 µM. For the same molecule, in data set [5], the “MIC v PA” value was found to be 2 µM. Also, in [6], the “MBEC v SA” value worked out at 50 µM. The “MBEC v EF” value in [7] came out at 75 µM.

`CCCCCCCCCCCCCCCC[n+]1cccc([C@@H]2CCCN2C)c1.[Br-]` [N-16,0]: in data set [1], the low micromolar activity is 4 µM.

On to `C=CC1C[N+]2(C)CCC1C[C@H]2[C@@H](O)c1cc[n+](C)c2ccc(OC)cc12` (stereo partly shown) [Q-1,1], for which the antimicrobial activity result in [1] is “essentially no antimicrobial activity”.

On to `CCCCCCCCCCC[n+]1ccc(-c2cc[n+](CCCCCCCCCCC)cc2)cc1` [PQ-11,11], for which the “MIC v SA” value in data set [2] (Table 1) worked out at 1 µM. Further, in [3], the “MIC v EF” value stood at 1 µM. The “MIC v EC” value in [4] was 1 µM. Moreover, the “MIC v PA” value in data set [5] was found to be 4 µM. In addition, the “MBEC v SA” value in data set [6] stood at 50 µM. For the same molecule, in data set [7], the “MBEC v EF” value turned out to be 50 µM.

Consider `C=CC[N+](C)(CC[N+](C)(C)CCCCCCCCCCCC)CC[N+](C)(CC=C)CC[N+](C)(C)CCCCCCCCCCCC` (stereo not shown) [N4-12,allyl,allyl,12], for which the “MIC v SA” value in data set [2] (Table 2, non-resistant S. aureus strain (SH1000)) was 1 µM. Moreover, the “MIC v MRSA” value in [10] is 1 µM. Also, the “MBEC v MRSA” value in [8] is 150 µM. For the same molecule, in data set [9], the Lysis20 was 8 µM, the “TI MRSA” value is 8 and the “TI SA” value was 8. In [1] (FIG. 4 legend, range of MIC values), the MIC fell in the range of 1 to 2 µM.

A word on the MIC: it is the least concentration at which growth counts as inhibited. High values mean a less susceptible organism, low ones a more susceptible organism.
